IC50 data for 17 compounds are collected here from patent US11759462B2, “Spirocyclic compounds as tryptophan hydroxylase inhibitors” (priority 2013, dated 2023).

The assay addresses T1, Recombinant human TPH1 (MBP tagged) (Homo sapiens, UniProt P17752).
T1 construct: cloning full length human TPH1 cDNA in to a bacterial pMAL-c5E expression vector; made in house; host or cells: E. coli BL21 (DE3)
T1 sequence (P17752 1-444): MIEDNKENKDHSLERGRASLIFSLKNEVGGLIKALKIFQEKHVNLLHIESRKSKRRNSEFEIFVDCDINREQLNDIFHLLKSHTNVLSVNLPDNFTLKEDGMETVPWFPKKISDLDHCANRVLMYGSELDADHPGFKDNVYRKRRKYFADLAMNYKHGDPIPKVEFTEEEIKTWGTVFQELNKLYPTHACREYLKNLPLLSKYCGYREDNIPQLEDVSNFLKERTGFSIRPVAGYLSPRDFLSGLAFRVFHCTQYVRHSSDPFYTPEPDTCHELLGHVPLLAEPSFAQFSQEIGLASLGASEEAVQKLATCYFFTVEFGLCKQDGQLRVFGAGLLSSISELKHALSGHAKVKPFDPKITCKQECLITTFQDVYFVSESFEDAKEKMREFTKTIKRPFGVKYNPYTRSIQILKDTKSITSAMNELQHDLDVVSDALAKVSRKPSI
Briefly: TPH1 in vitro inhibition assay (kinetic fluorescence). Type of assay: biochemical. The method in brief:
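Final mix: 15 nM MBP-TPH1, 30 μM Trp, 36 μM 6-methyltetrahydropterin, 25 μM ferrous ammonium sulfate, 50 mM MES pH 7.1, 1% DMSO, room temperature.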

The mark [1] stands for this setting: TPH1 Range (TPH1 inhibition IC50).
The mark [2] stands for this setting: read-out: TPH1 Range (TPH1 inhibition IC50).

The structures appear in SMILES notation. Read-outs that look alike come from different tables or passages of the source.

By IC50 is commonly meant the concentration at which inhibition is half-maximal. Turning to `Cc1ccn(-c2cc(-c3ccc(C)c(C)c3)ccc2[C@H](Oc2cc(N3CCC4(CC3)CN[C@@H](C(=O)O)C4)nc(N)n2)C(F)(F)F)n1` [Example 54l, (R)-8-(2-amino-6-((S)-1-(3′,4′-dimethyl-3-(3-methyl-1H-pyrazol-1-yl)-[1,1′-biphenyl]-4-yl)-2,2,2-trifluoroethoxy)pyrimidin-4-yl)-2,8-diazaspiro[4.5]decane-3-carboxylic acid], the IC50 under setting [1] was 3000 to 10000 nM.
On the same count and under the same terms, the value for `Cc1ccn(-c2cc(-c3ccc(C)c(C)c3)ccc2[C@@H](Oc2cc(N3CCC4(CC3)CN[C@@H](C(=O)O)C4)nc(N)n2)C(F)(F)F)n1` [Example 54m, (R)-8-(2-amino-6-((R)-1-(3′,4′-dimethyl-3-(3-methyl-1H-pyrazol-1-yl)-[1,1′-biphenyl]-4-yl)-2,2,2-trifluoroethoxy)pyrimidin-4-yl)-2,8-diazaspiro[4.5]decane-3-carboxylic acid] was 300 to 3000 nM.
Take `Nc1nc(O[C@H](c2ccc(-c3ccccc3)cc2)C(F)(F)F)cc(N2CCC3(CC2)CN[C@H](C(=O)O)C3)n1` [Example 55a, (S)-8-(6-((R)-1-([1,1′-biphenyl]-4-yl)-2,2,2-trifluoroethoxy)-2-aminopyrimidin-4-yl)-2,8-diazaspiro[4.5]decane-3-carboxylic acid]: the IC50 under setting [2] was 50 to 300 nM.
Same read-out and setting: the value for `COc1cc(C#N)cc(-c2ccc([C@@H](Oc3cc(N4CCC5(CC4)CN[C@H](C(=O)O)C5)nc(N)n3)C(F)(F)F)cc2)c1` [Example 55aa, (S)-8-(2-amino-6-((R)-1-(3′-cyano-5′-methoxy-[1,1′-biphenyl]-4-yl)-2,2,2-trifluoroethoxy)pyrimidin-4-yl)-2,8-diazaspiro[4.5]decane-3-carboxylic acid] was 50 to 300 nM.
On the same count and under the same terms, the value for `Nc1nc(O[C@H](c2ccc(-c3ccc4[nH]c(=O)oc4c3)cc2)C(F)(F)F)cc(N2CCC3(CC2)CN[C@H](C(=O)O)C3)n1` [Example 55ab, (S)-8-(2-amino-6-((R)-2,2,2-trifluoro-1-(4-(2-oxo-2,3-dihydrobenzo[d]oxazol-6-yl)phenyl)ethoxy)pyrimidin-4-yl)-2,8-diazaspiro[4.5]decane-3-carboxylic acid] was 50 to 300 nM; that for `Cc1c[nH]c2ccc(-c3ccc([C@@H](Oc4cc(N5CCC6(CC5)CN[C@H](C(=O)O)C6)nc(N)n4)C(F)(F)F)cc3)cc12` [Example 55ac, (S)-8-(2-amino-6-((R)-2,2,2-trifluoro-1-(4-(3-methyl-1H-indol-5-yl)phenyl)ethoxy)pyrimidin-4-yl)-2,8-diazaspiro[4.5]decane-3-carboxylic acid] was 50 to 300 nM.
Consider `COC(=O)c1ccc(-c2ccc([C@@H](Oc3cc(N4CCC5(CC4)CN[C@H](C(=O)O)C5)nc(N)n3)C(F)(F)F)cc2)cc1OC(C)=O` [Example 55ad, (S)-8-(6-((R)-1-(3′-acetoxy-4′-(methoxycarbonyl)-[1,1′-biphenyl]-4-yl)-2,2,2-trifluoroethoxy)-2-aminopyrimidin-4-yl)-2,8-diazaspiro[4.5]decane-3-carboxylic acid], for which the IC50 under setting [2] fell in the range of 50 to 300 nM.
Same read-out and setting: with `Nc1nc(O[C@H](c2ccc(-c3ccc4ccc(=O)oc4c3)cc2)C(F)(F)F)cc(N2CCC3(CC2)CN[C@H](C(=O)O)C3)n1` [Example 55ae, (S)-8-(2-amino-6-((R)-2,2,2-trifluoro-1-(4-(2-oxo-2H-chromen-7-yl)phenyl)ethoxy)pyrimidin-4-yl)-2,8-diazaspiro[4.5]decane-3-carboxylic acid] the figure was 300 to 3000 nM.
Same read-out and setting: with `Cn1cc(-c2ccc([C@@H](Oc3cc(N4CCC5(CC4)CN[C@H](C(=O)O)C5)nc(N)n3)C(F)(F)F)cc2)ccc1=O` [Example 55af, (S)-8-(2-amino-6-((R)-2,2,2-trifluoro-1-(4-(1-methyl-6-oxo-1,6-dihydropyridin-3-yl)phenyl)ethoxy)pyrimidin-4-yl)-2,8-diazaspiro[4.5]decane-3-carboxylic acid] the figure was 300 to 3000 nM; with `Nc1nc(O[C@H](c2ccc(-c3ccc(C(=O)O)c(O)c3)cc2)C(F)(F)F)cc(N2CCC3(CC2)CN[C@H](C(=O)O)C3)n1` [Example 55ag, (S)-8-(2-amino-6-((R)-1-(4′-carboxy-3′-hydroxy-[1,1′-biphenyl]-4-yl)-2,2,2-trifluoroethoxy)pyrimidin-4-yl)-2,8-diazaspiro[4.5]decane-3-carboxylic acid], 50 to 300 nM; with `COc1ccc2cc(-c3ccc([C@@H](Oc4cc(N5CCC6(CC5)CN[C@H](C(=O)O)C6)nc(N)n4)C(F)(F)F)cc3)ccc2n1` [Example 55ah, (S)-8-(2-amino-6-((R)-2,2,2-trifluoro-1-(4-(2-methoxyquinolin-6-yl)phenyl)ethoxy)pyrimidin-4-yl)-2,8-diazaspiro[4.5]decane-3-carboxylic acid], 50 to 300 nM.
Take `CSc1ccc2cc(-c3ccc([C@@H](Oc4cc(N5CCC6(CC5)CN[C@H](C(=O)O)C6)nc(N)n4)C(F)(F)F)cc3)ccc2n1` [Example 55ai, (S)-8-(2-amino-6-((R)-2,2,2-trifluoro-1-(4-(2-(methylthio)quinolin-6-yl)phenyl)ethoxy)pyrimidin-4-yl)-2,8-diazaspiro[4.5]decane-3-carboxylic acid]: the IC50 under setting [1] was < 50 nM.
On to `CN1C(=O)CCc2cc(-c3ccc([C@@H](Oc4cc(N5CCC6(CC5)CN[C@H](C(=O)O)C6)nc(N)n4)C(F)(F)F)cc3)ccc21` [Example 55aj, (S)-8-(2-amino-6-((R)-2,2,2-trifluoro-1-(4-(1-methyl-2-oxo-1,2,3,4-tetrahydroquinolin-6-yl)phenyl)ethoxy)pyrimidin-4-yl)-2,8-diazaspiro[4.5]decane-3-carboxylic acid], for which the IC50 under setting [2] lay within 50 to 300 nM.
With `COc1cc(F)cc(-c2ccc([C@@H](Oc3cc(N4CCC5(CC4)CN[C@H](C(=O)O)C5)nc(N)n3)C(F)(F)F)cc2)c1` [Example 55ao, (S)-8-(2-amino-6-((R)-2,2,2-trifluoro-1-(3′-fluoro-5′-methoxy-[1,1′-biphenyl]-4-yl)ethoxy)pyrimidin-4-yl)-2,8-diazaspiro[4.5]decane-3-carboxylic acid], the IC50 under setting [2] lay within 50 to 300 nM.
For `Nc1nc(O[C@H](c2ccc(-c3cc(F)cc(F)c3)cc2)C(F)(F)F)cc(N2CCC3(CC2)CN[C@H](C(=O)O)C3)n1` [Example 55ap, (S)-8-(2-amino-6-((R)-1-(3′,5′-difluoro-[1,1′-biphenyl]-4-yl)-2,2,2-trifluoroethoxy)pyrimidin-4-yl)-2,8-diazaspiro[4.5]decane-3-carboxylic acid], the IC50 under setting [2] lay in the range of 50 to 300 nM.
Same read-out and setting: with `COc1ccc(-c2ccc([C@@H](Oc3cc(N4CCC5(CC4)CN[C@H](C(=O)O)C5)nc(N)n3)C(F)(F)F)cc2)cc1` [Example 55aq, (S)-8-(2-amino-6-((R)-2,2,2-trifluoro-1-(4′-methoxy-[1,1′-biphenyl]-4-yl)ethoxy)pyrimidin-4-yl)-2,8-diazaspiro[4.5]decane-3-carboxylic acid] the figure was 50 to 300 nM; with `COc1ccccc1-c1ccc([C@@H](Oc2cc(N3CCC4(CC3)CN[C@H](C(=O)O)C4)nc(N)n2)C(F)(F)F)cc1` [Example 55ar, (S)-8-(2-amino-6-((R)-2,2,2-trifluoro-1-(2′-methoxy-[1,1′-biphenyl]-4-yl)ethoxy)pyrimidin-4-yl)-2,8-diazaspiro[4.5]decane-3-carboxylic acid], 50 to 300 nM.
